Experimental data from patent publication US20240158446A1, “CYCLIC COMPOUND HAVING SELECTIVE INHIBITORY ACTION ON KRAS OVER HRAS AND NRAS” (CHUGAI SEIYAKU KABUSHIKI KAISHA, priority 2021, published 2024).
Where a SMILES comes first, the peptide text is derived from it. Bridges are numbered along the chain shown (N, C = ends). [ ]: non-standard residue; d: D form. The star is where a group is joined. hPhe(3-Cl-4-CF3) = N[C@@H](CCc1ccc(C(F)(F)F)c(Cl)c1)C(=O)O; NPrPhe(4-CF3) = CCCN[C@@H](Cc1ccc(C(F)(F)F)cc1)C(=O)O; 3Oxa8azabicyclo(3.2.1)octane = C1CC2COCC1N2*; NMeGly(cPent) = CN[C@H](C(=O)O)C1CCCC1; NMeD = CN[C@@H](CC(=O)O)C(=O)O; NMeL = CN[C@@H](CC(C)C)C(=O)O; NMeA = CN[C@@H](C)C(=O)O; Ac5c = NC1(C(=O)O)CCCC1; Aze = O=C(O)[C@@H]1CCN1; Sar = CNCC(=O)O

Legend:
[1] = biological target: GDP-bound HRAS wild-type protein (Homo sapiens, UniProt P01112); assay: Binding to HRAS by surface plasmon resonance (SPR), Single Cycle Kinetics; details: for HRAS/KRAS (ratio of KD value with respect to GDP-bound HRAS wild-type protein to KD value with respect to KRAS): SPR KD ratio HRAS/KRAS, class symbols; for HRAS/KRAS (ratio of KD value for HRAS to KD value for KRAS): SPR, GDP-bound HRAS wild-type protein vs GDP-bound KRAS wild-type protein
Chain of GDP-bound HRAS wild-type protein (P01112 whole entry): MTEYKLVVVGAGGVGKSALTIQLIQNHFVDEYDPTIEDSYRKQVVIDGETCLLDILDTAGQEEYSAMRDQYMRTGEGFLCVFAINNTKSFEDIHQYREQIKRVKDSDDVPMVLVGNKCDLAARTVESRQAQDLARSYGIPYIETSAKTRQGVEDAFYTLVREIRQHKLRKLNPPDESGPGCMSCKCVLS

[2] = biological target: GDP-bound NRAS wild-type protein (Homo sapiens, UniProt P01111); assay: Binding to NRAS by surface plasmon resonance (SPR), Single Cycle Kinetics; details: for NRAS/KRAS (ratio of KD value with respect to GDP-bound NRAS wild-type protein to KD value with respect to KRAS): SPR KD ratio NRAS/KRAS, class symbols; for NRAS/KRAS (ratio of KD value for NRAS to KD value for KRAS): SPR, GDP-bound NRAS wild-type protein vs GDP-bound KRAS wild-type protein
Chain of GDP-bound NRAS wild-type protein (P01111 whole entry): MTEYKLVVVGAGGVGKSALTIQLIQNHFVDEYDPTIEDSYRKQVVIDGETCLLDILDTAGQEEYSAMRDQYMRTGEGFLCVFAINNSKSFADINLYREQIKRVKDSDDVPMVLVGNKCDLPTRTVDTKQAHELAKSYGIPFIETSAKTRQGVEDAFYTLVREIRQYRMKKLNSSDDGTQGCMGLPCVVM

| SMILES | HRAS/KRAS (ratio of KD value with respect to GDP-bound HRAS wild-type protein to KD value with respect to KRAS) [1] | NRAS/KRAS (ratio of KD value with respect to GDP-bound NRAS wild-type protein to KD value with respect to KRAS) [2] | HRAS/KRAS (ratio of KD value for HRAS to KD value for KRAS) [1] | NRAS/KRAS (ratio of KD value for NRAS to KD value for KRAS) [2] |
| --- | --- | --- | --- | --- |
| CCC[C@H]1C(=O)N[C@@H]([C@@H](C)CC)C(=O)N(C)CC(=O)N(C)[C@H]2C/C=C\CCN(C2=O)[C@@H](Cc2ccc(C)cc2)C(=O)N(C)CC(=O)N[C@@H](CCc2ccc(CC)c(Cl)c2)C(=O)N2C[C@H](OCC)C[C@H]2C(=O)NC2(CC(C)(C)C2)C(=O)N(C)[C@@H](C(CC)CC)C(=O)N(C)[C@H](C(=O)N(C)C)CC(=O)N1C [PP2779] | A (a compound having 10 or more and less than 20 is denoted as A) | A (a compound having 10 or more and less than 20 is denoted as A) | – | – |
| CCO[C@@H]1C[C@H]2C(=O)NC3(CC(C)(C)C3)C(=O)N(C)[C@@H](C(CC)CC)C(=O)N(C)[C@H](C(=O)N(C)C)CC(=O)N(C)[C@@H](CC3CC3)C(=O)N[C@@H]([C@@H](C)CC)C(=O)N(C)CC(=O)N(C)[C@H]3C/C=C\CCN(C3=O)[C@@H](Cc3ccc(C)cc3)C(=O)N(C)CC(=O)N[C@@H](CCc3ccc(Cl)c(Cl)c3)C(=O)N2C1 [PP2182] | – | – | A (a compound having 10 or more and less than 20 is denoted as A) | AA (a compound having 20 or more is denoted as AA) |
| CCCN1C(=O)[C@@H]2CCN2C(=O)[C@H](C)N(C)C(=O)[C@H]([C@@H](C)CC)NC(=O)[C@H](CC(C)C)N(C)C(=O)C[C@@H](C(=O)N2C3CCC2COC3)N(C)C(=O)[C@H](C2CCCC2)N(C)C(=O)C2(CCCC2)NC(=O)[C@@H]2CCCN2C(=O)[C@H](CCc2ccc(C(F)(F)F)c(Cl)c2)NC(=O)CN(C)C(=O)[C@@H]1Cc1ccc(C(F)(F)F)cc1 [PP0182] ([NMeL]I[NMeA][Aze][NPrPhe(4-CF3)][Sar][hPhe(3-Cl-4-CF3)]P[Ac5c][NMeGly(cPent)][NMeD]-{3Oxa8azabicyclo(3.2.1)octane}; lactam N-11) | – | – | B (a compound having 3 or more and less than 10 is denoted as B) | C (A compound having a KD ratio of 0.1 or more and less than 3 is denoted as C) |
| CC[C@H](C)[C@@H]1NC(=O)[C@H](CC(C)C)N(C)C(=O)C[C@@H](C(=O)N2CCOCC2)N(C)C(=O)[C@H](C2CCCC2)N(C)C(=O)C2(CCC2)NC(=O)[C@@H]2[C@@H](OCC3CC3)CCN2C(=O)[C@H](CCc2cc(F)c(C(F)(F)F)c(F)c2)NC(=O)CN(C)C(=O)[C@H](Cc2ccc(C(F)(F)F)cc2)N2CCCCC[C@@H](C2=O)N(C)C(=O)CN(C)C1=O [PP1010] | – | – | B (a compound having 3 or more and less than 10 is denoted as B) | B (a compound having 3 or more and less than 10 is denoted as B) |
| CCC(CC)[C@H]1C(=O)N(C)[C@H](C(=O)N(C)C)CC(=O)N(C)[C@@H](COC)C(=O)N[C@@H]([C@@H](C)CC)C(=O)N(C)CC(=O)N(C)[C@H]2C/C=C\CCN(C2=O)[C@@H](Cc2ccc(C)cc2)C(=O)N(C)CC(=O)N[C@@H](CCc2ccc(C(F)(F)F)c(Cl)c2)C(=O)N2CCCC[C@H]2C(=O)NC2(CC(C)(C)C2)C(=O)N1C [PP2931] | A (a compound having 10 or more and less than 20 is denoted as A) | A (a compound having 10 or more and less than 20 is denoted as A) | – | – |
| CCCOC[C@H]1C(=O)N[C@@H]([C@@H](C)CC)C(=O)N(C)CC(=O)N(C)[C@H]2C/C=C\CCN(C2=O)[C@@H](Cc2ccc(C)cc2)C(=O)N(C)CC(=O)N[C@@H](CCc2cc(F)c(C(F)(F)F)c(F)c2)C(=O)N2C[C@H](C)C[C@H]2C(=O)NC2(CCCC2)C(=O)N(C)[C@@H](C2CCCC2)C(=O)N(C)[C@H](C(=O)N(C)C)CC(=O)N1C [PP2225] | – | – | A (a compound having 10 or more and less than 20 is denoted as A) | A (a compound having 10 or more and less than 20 is denoted as A) |
| C=CCCC[C@H]1C(=O)N[C@@H]([C@@H](C)CC)C(=O)N(C)CC(=O)N(C)[C@H]2CCCCCN(C2=O)[C@@H](Cc2ccc(C(F)(F)F)cc2)C(=O)N(C)CC(=O)N[C@@H](CCc2cc(F)c(C(F)(F)F)c(F)c2)C(=O)N2C[C@H](OCC)C[C@H]2C(=O)N[C@](C)(CC=C)C(=O)N(C)[C@@H](C2CCCC2)C(=O)N(C)[C@H](C(=O)N2CCOCC2)CC(=O)N1C [PP0880] | – | – | B (a compound having 3 or more and less than 10 is denoted as B) | B (a compound having 3 or more and less than 10 is denoted as B) |
| CCC[C@H]1C(=O)N[C@@H]([C@@H](C)CC)C(=O)N(C2CC2)CC(=O)N(C)[C@H]2C/C=C\CCN(C2=O)[C@@H](Cc2ccc(C)cc2)C(=O)N(C)CC(=O)N[C@@H](CCc2ccc(C3CC3)c(OC)c2)C(=O)N2C[C@H](OCC)C[C@H]2C(=O)NC2(CC(C)(C)C2)C(=O)N(C)[C@@H](C2CCCC2)C(=O)N(C)[C@H](C(=O)N(C)C)CC(=O)N1C [PP2883] | A (a compound having 10 or more and less than 20 is denoted as A) | A (a compound having 10 or more and less than 20 is denoted as A) | – | – |
